Results as given in US11932619B1, “3-(2-(6-Methoxypyridin-3-yl)-4,5-diphenyl-1H-imidazol-1-yl)-N,N-dimethylpropan-1-amine as an anticancer compound” (KING FAISAL UNIVERSITY, priority 2023, dated 2024).

How the values were obtained:
[1] = test system: human prostate cancer cells (PC3); test: Assessment of cytotoxicity by SRB assay; format: cell-based; conditions: 0.01 μM to 100 μM for 72 h
Description: (§1) The human prostate cancer cells (PC3) and human osteosarcoma cells (MG-63) were obtained from Nawah Scientific Inc. (Mokatam, Cairo, Egypt) and cultured in DMEM (Dulbecco's modified eagle's medium), Gibco, USA, supplemented with fetal bovine serum (FBS) at a concentration of 10% and 100 U/mL of penicillin and streptomycin (PS). The Cells were incubated at 37° C. in a humidified environment that contained 5% CO2.
(§2) Cells were seeded in 96-well plates as aliquots of 100 μL cell suspension and incubated in a complete media for 24 h. afterward, cells were treated with 3-(2-(6-Methoxypyridin-3-yl)-4,5-diphenyl-1H-imidazol-1-yl)-N,N-dimethylpropan-1-amine at diverse concentrations ranging from 0.01 μM to 100 μM for 72 h. Then, cells were fixed at 4° C. for one hour with 150 μL of 10% trichloroacetic acid (TCA). After washing the cells five times with distilled water, 70 μL of sulforhodamine (SRB) solution (0.4% w/v) was added and incubated for 10 min at room temperature in a dark place. […] Then, 150 μL of Tris pH 10.5 (10 mM) was added, and the absorbance was measured at 540 nm using a BMG LABTECH®- FLUOstar Omega microplate reader (Ortenberg, Germany). Half maximal inhibitory concentrations (IC50) values were calculated for each experiment using GraphPad Prism 6 software. […]
(§3) The inhibition was calculated using the following equation: Inhibition %=100-Average Viability

[2] = test system: human osteosarcoma cells (MG-63); test: Assessment of cytotoxicity by SRB assay; format: cell-based; conditions: MG-63 cells, 0.01 μM to 100 μM for 72 h
Description: as §1, §2, §3

melting point: 125 to 127 °C
SMILES: COc1ccc(-c2nc(-c3ccccc3)c(-c3ccccc3)n2CCCN(C)C)cn1 [3-(2-(6-Methoxypyridin-3-yl)-4,5-diphenyl-1H-imidazol-1-yl)-N,N-dimethylpropan-1-amine]
antiproliferative activities [1]: excellent antiproliferative activities
antiproliferative activities [2]: excellent antiproliferative activities
